Values quoted from earlier work as cited in patent EP2251003A2, “Ophthalmic Compositions for the Re-epithelialization, Healing and Disinfection of the Eye Tissues” (priority 2009, dated 2010).
Where two headings read alike, the source gives them in different places.

Columns and labels:
fibroblast = details: in vitro
[1] = eyedrops containing dexpanthenol
eye of the rabbit [2] = details: 5% ophthalmic solution, topical application
[3] = topical use, reported in the literature
[4] = mouse
[5] = rat, more recent studies
eye of the rabbit [6] = details: topical
[7] = 50 mg/kg/day administered orally to rats, subchronic
[8] = 1.5 g/kg/day administered for 90 days
[9] = 1 g/kg/day, rat
cornea of the rabbit = details: administered to the cornea of the rabbit
[10] = in vivo

Question: What does the source list for `CC(C)(CO)[C@@H](O)C(=O)NCCCO` [dexpanthenol]?
Answer: fibroblast proliferation (fibroblast): activation of fibroblast proliferation; ocular tolerability [1]: excellent; extent and time of re-epithelialisation of the corneal endothelium (eye of the rabbit [2]): significantly stimulated

Question: With `N=C(N)c1ccc(OCCCCCCOc2ccc(C(=N)N)cc2)cc1` [hexamidine diisethionate] as the compound, how does the cases of sensitisation [3] read?
Answer: nine cases out of millions of subjects

Question: And the “intraperit. LD50” value ([4]; intraperitoneal)?
Answer: 1060 mg/kg

Question: And the “oral LD Lo” value ([4]; oral)?
Answer: 100 mg/kg

Question: And the “oral LD50” value ([4]; oral, Toxicology and Applied Pharmacology 1975)?
Answer: 280 mg/kg

Question: And the “oral acute toxicity, expressed as LD50” value ([4]; oral, more recent studies)?
Answer: 710 to 2500 mg/kg

Question: And the “oral acute toxicity, expressed as LD50” value [5]?
Answer: 750 mg/kg

Question: What about the eye irritation (eye of the rabbit [6]; aqueous solutions containing 0.10-0.11%) of the same compound?
Answer: slight, transient irritation

Question: And the eye irritation (eye of the rabbit [6]; concentration of 0.050%)?
Answer: no reaction

Question: What about the toxic effect [7] of the same compound?
Answer: did not show any toxic effect

Question: Which toxic effect [8] does the source give for `CS(C)(=O)=O` [MSM, Methylsulphonylmethane] here?
Answer: do not have any toxic effect

Question: And the “toxic effects on fertility, gestation and neonatal development” value [9]?
Answer: absence of toxic effects

Question: And the “intraocular absorption of other substances” value (cornea of the rabbit)?
Answer: promotes intraocular absorption of disodium edetate and other substances

Question: And the “absorption and urinary elimination” value [10]?
Answer: rapid absorption and rapid urinary elimination
